From patent US5191079A, “Quinolinecarboxylic acid derivatives” (priority 1990, dated 1993)
In brackets after ≈: the same amount, converted by molar mass. Like-named read-outs stand apart in the source and are kept apart here.

Tests used:
Assay type in all cases: cell-based
[1] = system: clinically isolated Enterococcus faecalis; assay: In vitro antibacterial activity against clinical isolates, Experiment 2; details: 25 clinical strains E. faecalis; for MIC50: 50% of strains, read-out: MIC50; for MIC90: 90% of strains, read-out: MIC90
Outline: (§1)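 Stock: compound diluted in sterile distilled water to 1000 μg/ml. Preculture: sensitivity test broth. MIC read-out: sensitivity test agar medium. Strains: clinical isolates, Nov. 1988–Jun. 1989.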

[2] = system: clinically isolated Enterococcus faecium; assay: as above
Outline: as §1

[3] = system: clinically isolated Staphylococcus aureus; assay: as above; details: for MIC50: 50% of strains, read-out: MIC50
Outline: as §1

[4] = system: clinically isolated Staphylococcus epidermidis; assay: as above; details: Staphylococcus epidermidis; for MIC90: 90% of strains, read-out: MIC90
Outline: as §1

[5] = system: Staphylococcus epidermidis IAM 1296; assay: MIC, Experiment 1; details: IAM1296, S. epidermidis IAM 1296, Gram +, read-out: Min. inhib. concentr. (MIC)
Description: The compounds of the present invention ([…] and Q) were each dissolved in dimethylsulfoxide to prepare a solution of 5000 μg/ml in concentration. The compounds of the present invention (I, J and K) and the known compound (Y) were each dissolved in sterilized distilled water to prepare a solution of 5000 μg/ml in concentration. […] The test was carried out by a method as appointed by Japan Society of Chemotherapy [cf. Chemotherapy, 29, 76-79 (1981), TOKYO]. As to Streptococcus pneumoniae and Streptococcus pyogenes, Brain heart infusion broth (manufactured by DIFCO) was used as the medium for the preculture thereof, and a heart infusion agar medium containing 5% defibrinated horse blood (manufactured by Nissui Seiyaku K. K., Japan) was used as the medium for the measurement of minimum inhibitory concentration (MIC). As to other microorganisms, a sensitivity test broth (manufactured by Nissui Seiyaku K. K.) was used as the medium for the preculture thereof, and a sensitivity test agar medium (manufactured by Nissui Seiyaku K. K.) was used as the medium for the measurement of MIC.

[6] = system: Bacillus subtilis ATCC 6633; assay: MIC, Experiment 1; details: ATCC6633, B. subtilis ATCC 6633, Gram +, read-out: Min. inhib. concentr. (MIC)
Outline: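 Japan Society of Chemotherapy MIC protocol. Pneumococci: BHI broth preculture, heart infusion agar plus 5% defibrinated horse blood. Staphylococcus/Bacillus: sensitivity test broth preculture, sensitivity test agar.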

[7] = system: Staphylococcus aureus Terajima (IID 670); assay: MIC, Experiment 1; details: IID670, S. aureus Terajima (IID 670), Gram +, read-out: Min. inhib. concentr. (MIC)
Outline: (§2)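 Stock solutions (5000 μg/ml, in DMSO or water) were diluted to 1000 μg/ml working standards. MICs were measured per the Japan Society of Chemotherapy procedure, with media matched to each organism: blood-supplemented heart infusion agar for S. pneumoniae and sensitivity test agar for the remaining strains.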

[8] = system: Staphylococcus aureus IID 803; assay: MIC, Experiment 1; details: IID803, S. aureus IID 803, Gram +, read-out: Min. inhib. concentr. (MIC)
Outline: as §2

[9] = system: Proteus mirabilis IFO 3849; assay: MIC, Experiment 1; details: IFO3849, P. mirabilis IFO 3849, Gram -, read-out: Min. inhib. concentr. (MIC)
Outline: as §2

[10] = system: Streptococcus pyogenes Sv; assay: MIC, Experiment 1; details: S. pyogenes Sv, Gram +, agar with 5% defibrinated horse blood, read-out: Min. inhib. concentr. (MIC)
Outline: (§3)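 Minimum inhibitory concentrations come from the Japan Society of Chemotherapy procedure. For streptococci, plates were heart infusion agar with 5% defibrinated horse blood after brain heart infusion broth preculture. Non-streptococcal strains were grown in sensitivity test broth and plated on sensitivity test agar.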

[11] = system: Pseudomonas aeruginosa NCTC 10490; assay: MIC, Experiment 1; details: NCTC10490, P. aeruginosa NCTC 10490, Gram -, read-out: Min. inhib. concentr. (MIC)
Outline: as §2

[12] = system: Staphylococcus aureus Cowan I (IID 975); assay: MIC, Experiment 1; details: IID975, S. aureus Cowan I (IID 975), Gram +, read-out: Min. inhib. concentr. (MIC)
Outline: as §2

Enterobacter cloacae 963 = assay: MIC, Experiment 1; details: E. cloacae 963, Gram -, read-out: Min. inhib. concentr. (MIC)
Outline: as §2

[13] = system: Streptococcus pyogenes Cook; assay: MIC, Experiment 1; details: S. pyogenes Cook, Gram +, agar with 5% defibrinated horse blood, read-out: Min. inhib. concentr. (MIC)
Outline: as §3

[14] = system: Staphylococcus aureus MS-353; assay: MIC, Experiment 1; details: MS353, S. aureus MS-353, Gram +, read-out: Min. inhib. concentr. (MIC)
Outline: as §2

[15] = system: Streptococcus pyogenes Su; assay: MIC, Experiment 1; details: S. pyogenes Su, Gram +, agar with 5% defibrinated horse blood, read-out: Min. inhib. concentr. (MIC)
Outline: as §3

[16] = system: Escherichia coli NIHJ JC-2; assay: MIC, Experiment 1; details: NIHJJC2, E. coli NIHJ JC-2, Gram -, read-out: Min. inhib. concentr. (MIC)
Outline: as §2

[17] = system: Streptococcus pneumoniae IID 552; assay: MIC, Experiment 1; details: IID552, S. pneumoniae IID 552, Gram +, agar with 5% defibrinated horse blood, read-out: Min. inhib. concentr. (MIC)
Outline: as §2

Bacillus cereus IAM 1029 = assay: MIC, Experiment 1; details: IAM1029, B. cereus IAM 1029, Gram +, read-out: Min. inhib. concentr. (MIC)
Outline: as §2

[18] = 25 clinical strains S. aureus incl. 16 methicillin resistant
[19] = 25 clinical strains S. epidermidis
[20] = 25 clinical strains E. faecium, 90% of strains, read-out: MIC90

CN1Cc2csc3c(C(=O)O)c(=O)c4cc(F)c(N5CCOC(CO)C5)c1c4n23 (stereo not drawn) [Compound (B), 9,1-(Methylimino)methano-7-fluoro-8-(2-hydroxymethylmorpholino)-5-oxo-5H-thiazolo[3,2-a]quinoline-4-carboxylic acid]
MIC [1]: 0.05 to 3.13 µg/mL (≈ 0.119 to 7.46 µM)
MIC50 [1]: 0.2 µg/mL (≈ 0.477 µM)
MIC90 [1]: 3.13 µg/mL (≈ 7.46 µM)
MIC50 [2]: 1.56 µg/mL (≈ 3.72 µM)
MIC90 [2]: 6.25 µg/mL (≈ 14.9 µM)
MIC ([2]; 25 clinical strains E. faecium): 0.1 to 25 µg/mL (≈ 0.238 to 59.6 µM)
MIC90 [3]: 0.78 µg/mL (≈ 1.86 µM)
MIC [3, 18]: 0.006 to 0.78 µg/mL (≈ 0.0143 to 1.86 µM)
MIC50 [3, 18]: 0.013 µg/mL (≈ 0.031 µM)
MIC50 [4]: 0.025 µg/mL (≈ 0.0596 µM)
MIC [4, 19]: 0.006 to 0.78 µg/mL (≈ 0.0143 to 1.86 µM)
MIC90 [4, 19]: 0.39 µg/mL (≈ 0.93 µM)
MIC [5]: 0.05 µg/mL (≈ 0.119 µM)
MIC [6]: ≤ 0.006 µg/mL
MIC [7]: 0.025 µg/mL (≈ 0.0596 µM)
MIC [8]: 0.013 µg/mL (≈ 0.031 µM)
MIC [9]: 0.39 µg/mL (≈ 0.93 µM)
MIC [10]: 0.05 µg/mL (≈ 0.119 µM)
MIC [11]: 0.39 µg/mL (≈ 0.93 µM)
MIC [12]: 0.013 µg/mL (≈ 0.031 µM)
MIC (Enterobacter cloacae 963): 0.2 µg/mL (≈ 0.477 µM)
MIC [13]: 0.025 µg/mL (≈ 0.0596 µM)
MIC [14]: 0.025 µg/mL (≈ 0.0596 µM)
MIC [15]: 0.025 µg/mL (≈ 0.0596 µM)
MIC [16]: 0.1 µg/mL (≈ 0.238 µM)
MIC [17]: 0.025 µg/mL (≈ 0.0596 µM)
MIC (Bacillus cereus IAM 1029): 0.025 µg/mL (≈ 0.0596 µM)

CN1Cc2csc3c(C(=O)O)c(=O)c4cc(F)c(N5CCO[C@H](CO)C5)c1c4n23 [Compound (M), 9,1-(Methylimino)methano-7-fluoro-8-[ (2S)-2-hydroxymethylmorpholino]-5-oxo-5H-thiazolo[3,2-a]quinoline-4-carboxylic acid]
MIC [1]: 0.05 to 3.13 µg/mL (≈ 0.119 to 7.46 µM)
MIC50 [1]: 0.2 µg/mL (≈ 0.477 µM)
MIC90 [1]: 3.13 µg/mL (≈ 7.46 µM)
MIC50 [2]: 1.56 µg/mL (≈ 3.72 µM)
MIC ([2]; 25 clinical strains E. faecium): 0.1 to 25 µg/mL (≈ 0.238 to 59.6 µM)
MIC90 [2, 20]: 3.13 µg/mL (≈ 7.46 µM)
MIC90 [3]: 0.78 µg/mL (≈ 1.86 µM)
MIC [3, 18]: 0.006 to 0.78 µg/mL (≈ 0.0143 to 1.86 µM)
MIC50 [3, 18]: 0.013 µg/mL (≈ 0.031 µM)
MIC50 [4]: 0.025 µg/mL (≈ 0.0596 µM)
MIC [4, 19]: 0.006 to 0.78 µg/mL (≈ 0.0143 to 1.86 µM)
MIC90 [4, 19]: 0.39 µg/mL (≈ 0.93 µM)
MIC [5]: 0.05 µg/mL (≈ 0.119 µM)
MIC [6]: ≤ 0.006 µg/mL
MIC [7]: 0.025 µg/mL (≈ 0.0596 µM)
MIC [8]: 0.013 µg/mL (≈ 0.031 µM)
MIC [9]: 0.39 µg/mL (≈ 0.93 µM)
MIC [10]: 0.05 µg/mL (≈ 0.119 µM)
MIC [11]: 0.39 µg/mL (≈ 0.93 µM)
MIC [12]: 0.013 µg/mL (≈ 0.031 µM)
MIC (Enterobacter cloacae 963): 0.2 µg/mL (≈ 0.477 µM)
MIC [13]: 0.05 µg/mL (≈ 0.119 µM)
MIC [14]: 0.025 µg/mL (≈ 0.0596 µM)
MIC [15]: 0.025 µg/mL (≈ 0.0596 µM)
MIC [16]: 0.1 µg/mL (≈ 0.238 µM)
MIC [17]: 0.05 µg/mL (≈ 0.119 µM)
MIC (Bacillus cereus IAM 1029): 0.025 µg/mL (≈ 0.0596 µM)

CN1Cc2csc3c(C(=O)O)c(=O)c4cc(F)c(N5CCOC(CF)C5)c1c4n23 (stereo not drawn) [Compound (C), 9,1-(Methylimino)methano-7-fluoro-8-(2-fluoromethylmorpholino)-5-oxo-5H-thiazolo[3,2-a]quinoline-4-carboxylic acid]
MIC [1]: 0.05 to 3.13 µg/mL (≈ 0.119 to 7.43 µM)
MIC50 [1]: 0.1 µg/mL (≈ 0.237 µM)
MIC90 [1]: 3.13 µg/mL (≈ 7.43 µM)
MIC ([2]; 25 clinical strains E. faecium): 0.05 to 6.25 µg/mL (≈ 0.119 to 14.8 µM)
MIC50 ([2]; 25 clinical strains E. faecium, 50% of strains, read-out: MIC50): 0.78 µg/mL (≈ 1.85 µM)
MIC90 [2, 20]: 3.13 µg/mL (≈ 7.43 µM)
MIC [3, 18]: 0.006 to 0.2 µg/mL (≈ 0.0142 to 0.475 µM)
MIC50 [3, 18]: 0.013 µg/mL (≈ 0.0308 µM)
MIC90 ([3]; 25 clinical strains S. aureus incl. 16 methicillin resistant, 90% of strains, read-out: MIC90): 0.2 µg/mL (≈ 0.475 µM)
MIC [4, 19]: 0.006 to 0.39 µg/mL (≈ 0.0142 to 0.925 µM)
MIC50 ([4]; 25 clinical strains S. epidermidis, 50% of strains, read-out: MIC50): 0.013 µg/mL (≈ 0.0308 µM)
MIC90 [4, 19]: 0.39 µg/mL (≈ 0.925 µM)
MIC [5]: 0.025 µg/mL (≈ 0.0593 µM)
MIC [6]: ≤ 0.006 µg/mL
MIC [7]: 0.013 µg/mL (≈ 0.0308 µM)
MIC [8]: ≤ 0.006 µg/mL
MIC [9]: 0.2 µg/mL (≈ 0.475 µM)
MIC [10]: 0.05 µg/mL (≈ 0.119 µM)
MIC [11]: 0.39 µg/mL (≈ 0.925 µM)
MIC [12]: 0.013 µg/mL (≈ 0.0308 µM)
MIC (Enterobacter cloacae 963): 0.2 µg/mL (≈ 0.475 µM)
MIC [13]: 0.05 µg/mL (≈ 0.119 µM)
MIC [14]: 0.013 µg/mL (≈ 0.0308 µM)
MIC [15]: 0.025 µg/mL (≈ 0.0593 µM)
MIC [16]: 0.2 µg/mL (≈ 0.475 µM)
MIC [17]: 0.025 µg/mL (≈ 0.0593 µM)
MIC (Bacillus cereus IAM 1029): 0.013 µg/mL (≈ 0.0308 µM)
